Experimental data taken from PubChem BioAssay (NCI).
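Grown in 96-well plates, cells were treated for 48 hours with each compound at five concentrations. Insufficient inhibition: endpoint recorded as highest concentration tested. TGI: concentration producing complete growth inhibition.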

Legend:
Test in all cases: NCI tumour cell line growth inhibition, 48 h
OVCAR-5 ovarian = test system: OVCAR-5 ovarian
SF-539 CNS = test system: SF-539 CNS
HOP-62 NSCLC = test system: HOP-62 NSCLC
SF-295 CNS = test system: SF-295 CNS
TK-10 renal = test system: TK-10 renal
MALME-3M melanoma = test system: MALME-3M melanoma
HT29 colon = test system: HT29 colon
MDA-MB-231 breast = test system: MDA-MB-231 breast
KM12 colon = test system: KM12 colon
M14 melanoma = test system: M14 melanoma
ACHN renal = test system: ACHN renal
SR leukemia = test system: SR leukemia
SK-OV-3 ovarian = test system: SK-OV-3 ovarian
MCF7 breast = test system: MCF7 breast
RXF 393 renal = test system: RXF 393 renal
OVCAR-8 ovarian = test system: OVCAR-8 ovarian
786-0 renal = test system: 786-0 renal
U251 CNS = test system: U251 CNS
MDA-MB-435 = test system: MDA-MB-435
HL-60(TB) leukemia = test system: HL-60(TB) leukemia
LOX IMVI melanoma = test system: LOX IMVI melanoma
SF-268 CNS = test system: SF-268 CNS
NCI/ADR-RES ovarian = test system: NCI/ADR-RES ovarian
NCI-H460 lung = test system: NCI-H460 lung
SNB-19 CNS = test system: SNB-19 CNS
DU-145 prostate = test system: DU-145 prostate
CCRF-CEM leukemia = test system: CCRF-CEM leukemia
NCI-H23 lung = test system: NCI-H23 lung
K-562 leukemia = test system: K-562 leukemia
PC-3 prostate = test system: PC-3 prostate
SW-620 colon = test system: SW-620 colon
HCC-2998 colon = test system: HCC-2998 colon
COLO 205 colon = test system: COLO 205 colon
T-47D breast = test system: T-47D breast
UACC-62 melanoma = test system: UACC-62 melanoma
OVCAR-3 ovarian = test system: OVCAR-3 ovarian
SN12C renal = test system: SN12C renal
NCI-H226 lung = test system: NCI-H226 lung
A549 NSCLC = test system: A549 NSCLC
HS 578T breast = test system: HS 578T breast
UO-31 renal = test system: UO-31 renal
MOLT-4 leukemia = test system: MOLT-4 leukemia
IGROV1 ovarian = test system: IGROV1 ovarian
A498 renal = test system: A498 renal
BT-549 breast = test system: BT-549 breast
OVCAR-4 ovarian = test system: OVCAR-4 ovarian
RPMI-8226 leukemia = test system: RPMI-8226 leukemia
MDA-N = test system: MDA-N
HCT-15 colon = test system: HCT-15 colon
EKVX NSCLC = test system: EKVX NSCLC
SK-MEL-5 melanoma = test system: SK-MEL-5 melanoma
SK-MEL-28 melanoma = test system: SK-MEL-28 melanoma
SNB-75 CNS = test system: SNB-75 CNS
NCI-H522 lung = test system: NCI-H522 lung
SK-MEL-2 melanoma = test system: SK-MEL-2 melanoma
UACC-257 melanoma = test system: UACC-257 melanoma
CAKI-1 renal = test system: CAKI-1 renal
HOP-92 NSCLC = test system: HOP-92 NSCLC
HCT-116 colon = test system: HCT-116 colon

Measured: TGI

Cn1ccnc1CCc1ccc(F)cc1F
not listed: UACC-257 melanoma | CAKI-1 renal | HOP-92 NSCLC | HCT-116 colon
> 100 µM: all other assays above

CC1=NN(c2cccc(Cl)c2)C2(C1)C(Cl)C(=O)N2c1nc2ccccc2s1 (stereo unspecified)
44.4 µM: SK-MEL-5 melanoma
38.7 µM: SK-MEL-2 melanoma
41.6 µM: RPMI-8226 leukemia
41.2 µM: MDA-MB-231 breast
56.6 µM: NCI-H522 lung
53.4 µM: HL-60(TB) leukemia
43.4 µM: NCI-H226 lung
31.9 µM: COLO 205 colon
85.9 µM: BT-549 breast
69.7 µM: NCI/ADR-RES ovarian
63.8 µM: PC-3 prostate
76.2 µM: A549 NSCLC
66.5 µM: OVCAR-3 ovarian
50.6 µM: 786-0 renal
72.5 µM: U251 CNS
40.4 µM: HCT-116 colon
48.4 µM: K-562 leukemia
64.1 µM: M14 melanoma
67.1 µM: SNB-75 CNS
34.3 µM: SR leukemia
49.5 µM: NCI-H23 lung
82.3 µM: SN12C renal
64.8 µM: HOP-62 NSCLC
75.6 µM: HOP-92 NSCLC
51.1 µM: UO-31 renal
34.9 µM: LOX IMVI melanoma
59.1 µM: RXF 393 renal
97.4 µM: T-47D breast
69.1 µM: SK-OV-3 ovarian
38.6 µM: MOLT-4 leukemia
98.1 µM: SF-295 CNS
not listed: SF-539 CNS | CCRF-CEM leukemia | SK-MEL-28 melanoma
> 100 µM: all other assays above
